The text below walks through data of patent publication US10526332B2, “Imidazo-pyrimidone compounds, and preparation method and application thereof” (Nanjing Gator Meditech Company, Ltd., priority 2015, dated 2020).

Experiment [1] has as its system MDA-MB-231. In words: MTS cell proliferation test, MDA-MB-231.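 Further: cells settled 24 h before compound addition, MTS absorbance at 490 nm, survival as percent of untreated cells after blank subtraction, IC50 fitted from survival versus concentration.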 The conditions noted are these: Homo sapiens, MDA-MB-231, 72 h, read-out: MDA231 IC50 (Mean ± SD).
Experimental: (§1) The disclosed compounds and their pharmaceutically accepted salts are assayed for their anti-cancer activities by the following method. • MTS Cell Proliferation Test 1. Materials 1.1. […] Cell Lines
(§2) Two cell lines were used, both HCT116 and MDA-MB-231 were purchased from USATCC.
(§3) MTS reagent powder was purchased from Promega. Cat #G1111; PMS from Sigma, Cat #P8625; cell culture medium RPMI-1640, Cat #10040562R; DMEM, Cat #0013CVR; 100× sodium pyruvate solution Cat #136007; 100× Penicillin Streptomycin Solution, Cat ⊇15140122; 100× Penicillin Streptomycin Solution, Cat #15140122; 0.25% Trypsin (Parenzyme), Cat #25200-072; and fetal bovine serum, Cat #16000-044 were all purchased from Life Technologies.
(§4) • Thermo incubator (Format 371); • Heat force Biosafety Cabinet (HF sage 1500); • BioTek Microplate Reader (Synergy 2). 2. […] 2.3 Procedure of MTS Methods:
(§5) Cells at logarithmic phase were harvested, then digested with 0.25% trypsin, and re-suspense in complete growth medium. 150 uL/well of HCT-116 and MDA-MB-231 were dispensed into 96 well culture plates with 2.5×10^3 cell/well. The plates were pre-incubated in a humidified CO2 incubator at 37° C., 5% CO2) for 24 hours. 50 uL of various concentration of test compounds and reference compound were added. A negative control (only cells and culture medium without compound) and blank control (only culture medium without cells) were set at the same time. The plates were incubated for 72 hr in the incubator. The MTS/PMS solution was prepared and added into 96 well plates according to the test instruction by Promega Corporation. The plates were incubated again for some time, then the absorbance at 490 nm were measured using Biotek Instruments, Inc microplate reader and the cell survival rates calculated. Cell Survival Rate(%)=(At−Ab)/(Ac−Ab)×100% where, • At=Absorbance value of test compound • Ab=Absorbance value of blank • Ac=Absorbance value of control 3. Results
The test system of experiment [2] is HCT116. In words: MTS cell proliferation test, HCT116.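 Further: absorbance at 490 nm after MTS/PMS addition, survival relative to untreated cells (100%) after blank subtraction, IC50 from the concentration–survival curve.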 The conditions noted are these: Homo sapiens, HCT-116, 72 h, read-out: HCT116 IC50 (Mean ± SD). (Tetrazolium dyes change colour on reduction, which living cells bring about.)
Experimental: as §1, §2, §3, §4, §5

As usually defined, the IC50 is the midpoint of a concentration-inhibition curve.

For `O=C1C2=C(CCN(Cc3cccc(F)c3)C2)N2CCN=C2N1Cc1ccccc1C(F)(F)F` [Compound I-50, 7-(3-fluorobenzyl)-4-(2-(trifluoromethyl)benzyl)-1,2,6,7,8,9-hexahydroimidazo[1,2-a]pyrido[3,4-e]pyrimidin-5(4H)-one], the results for the 50% inhibitory concentration (IC50) in experiment [1] and in experiment [2] were 1.77 ± 0.429 µM and 0.77 ± 0.014 µM, respectively.

Regarding `O=C1C2=C(CCN(Cc3cccc(F)c3)C2)N2CCN=C2N1Cc1ccccc1F` [Compound I-49, 4-(2-fluorobenzyl)-7-(3-fluorobenzyl)-1,2,6,7,8,9-hexahydroimidazo[1,2-a]pyrido[3,4-e]pyrimidin-5(4H)-one], the IC50 in experiment [1] was found to be 0.93 ± 0.098 µM; in experiment [2], 0.58 ± 0.043 µM.

For the compound `O=C1C2=C(CCN(Cc3cccc(Br)c3)C2)N2CCN=C2N1Cc1ccccc1Cl` [Compound I-28, 7-(3-bromobenzyl)-4-(2-chlorobenzyl)-1,2,6,7,8,9-hexahydroimidazo[1,2-a]pyrido[3,4-e]pyrimidin-5(4H)-one], the IC50 stood at 2.22 ± 0.029 µM in experiment [1] and 2.2 ± 0.017 µM in experiment [2].

For `Cc1cccc(CN2CCC3=C(C2)C(=O)N(Cc2ccccc2C(F)(F)F)C2=NCCN23)c1` [Compound I-31, 7-(3-methylbenzyl)-4-(2-(trifluoromethyl)benzyl)-1,2,6,7,8,9-hexahydroimidazo[1,2-a]pyrido[3,4-e]pyrimidin-5(4H)-one], the IC50 was 1.65 ± 0.05 µM in experiment [1] and 1.25 ± 0.122 µM in experiment [2].

`O=C1C2=C(CCN(Cc3ccccc3F)C2)N2CCN=C2N1Cc1ccccc1Cl` [Compound I-13, 4-(2-chlorobenzyl)-7-(2-fluorobenzyl)-1,2,6,7,8,9-hexahydroimidazo[1,2-a]pyrido[3,4-e]pyrimidin-5(4H)-one]: the IC50 in experiment [1] amounted to 1.94 ± 0.277 µM; in experiment [2] it was 1.77 ± 0.072 µM.

For `O=C1C2=C(CCN(Cc3ccccc3Br)C2)N2CCN=C2N1Cc1ccccc1F` [Compound I-16, 7-(2-bromobenzyl)-4-(2-fluorobenzyl)-1,2,6,7,8,9-hexahydroimidazo[1,2-a]pyrido[3,4-e]pyrimidin-5(4H)-one], the IC50 worked out at 3.07 ± 0.752 µM in experiment [1] and 2.16 ± 0.013 µM in experiment [2].

For the compound `O=C1C2=C(CCN(Cc3ccccc3)C2)N2CCN=C2N1Cc1ccc(Cl)c(Cl)c1` [Compound I-40, 7-benzyl-4-(3,4-dichlorobenzyl)-1,2,6,7,8,9-hexahydroimidazo[1,2-a]pyrido[3,4-e]pyrimidin-5(4H)-one], the IC50 was 0.12 ± 0.01 µM in experiment [1] and 0.08 µM in experiment [2].

As to `O=C1C2=C(CCN(Cc3ccccc3)C2)N2CCN=C2N1Cc1ccccc1C(F)(F)F` [Compound I-4, 7-benzyl-4-(2-(trifluoromethyl)benzyl)-1,2,6,7,8,9-hexahydroimidazo[1,2-a]pyrido[3,4-e]pyrimidin-5(4H)-one], the IC50 in experiment [1] stood at 1.17 ± 0.178 µM; in experiment [2], 1.36 ± 0.023 µM.

For `O=C1C2=C(CCN(Cc3ccccc3Cl)C2)N2CCN=C2N1Cc1ccccc1C(F)(F)F` [Compound I-24, 7-(2-chlorobenzyl)-4-(2-(trifluoromethyl)benzyl)-1,2,6,7,8,9-hexahydroimidazo[1,2-a]pyrido[3,4-e]pyrimidin-5(4H)-one], the IC50 in experiment [1] came to 1.99 ± 0.039 µM; in experiment [2], 2.09 ± 0.041 µM.

As to `O=C1C2=C(CCN(Cc3cccc(F)c3)C2)N2CCN=C2N1Cc1ccccc1Br` [Compound I-52, 4-(2-bromobenzyl)-7-(3-fluorobenzyl)-1,2,6,7,8,9-hexahydroimidazo[1,2-a]pyrido[3,4-e]pyrimidin-5(4H)-one], the IC50 in experiment [1] amounted to 2.07 ± 0.115 µM; in experiment [2] it was 1.18 ± 0.155 µM.

Turning to `O=C1C2=C(CCN(Cc3ccccc3)C2)N2CCN=C2N1Cc1cccc(C(F)(F)F)c1` [Compound I-38, 7-benzyl-4-(3-(trifluoromethyl)benzyl)-1,2,6,7,8,9-hexahydroimidazo[1,2-a]pyrido[3,4-e]pyrimidin-5(4H)-one], the IC50 turned out to be 0.4 ± 0.03 µM in experiment [1] and 0.24 ± 0.02 µM in experiment [2].

For the compound `Cc1cccc(CN2C(=O)C3=C(CCN(Cc4ccccc4)C3)N3CCN=C23)c1` [Compound I-2, 7-benzyl-4-(3-methylbenzyl)-1,2,6,7,8,9-hexahydroimidazo[1,2-a]pyrido[3,4-e]pyrimidin-5(4H)-one], the IC50 worked out at 0.24 µM in experiment [1] and 0.23 ± 0.004 µM in experiment [2].

For the compound `O=C1C2=C(CCN(Cc3ccccc3)C2)N2CCN=C2N1Cc1ccc(Cl)cc1Cl` [Compound I-41, 7-benzyl-4-(2,4-dichlorobenzyl)-1,2,6,7,8,9-hexahydroimidazo[1,2-a]pyrido[3,4-e]pyrimidin-5(4H)-one], the IC50 was 2.01 ± 0.01 µM in experiment [1] and 1.73 ± 0.25 µM in experiment [2].

Consider `O=C1C2=C(CCN(Cc3cccc(Br)c3)C2)N2CCN=C2N1Cc1ccccc1F` [Compound I-53, 7-(3-bromobenzyl)-4-(2-fluorobenzyl)-1,2,6,7,8,9-hexahydroimidazo[1,2-a]pyrido[3,4-e]pyrimidin-5(4H)-one], for which the IC50 in experiment [1] came to 0.73 ± 0.002 µM; in experiment [2] it was 0.7 ± 0.001 µM.

In the case of `O=C1C2=C(CCN(Cc3ccccc3Br)C2)N2CCN=C2N1Cc1ccccc1C(F)(F)F` [Compound I-17, 7-(2-bromobenzyl)-4-(2-(trifluoromethyl)benzyl)-1,2,6,7,8,9-hexahydroimidazo[1,2-a]pyrido[3,4-e]pyrimidin-5(4H)-one], the values for the IC50 in experiment [1] and in experiment [2] were 2.14 ± 0.031 µM and 2.02 ± 0.022 µM, respectively.

As for `Cc1ccccc1CN1CCC2=C(C1)C(=O)N(Cc1ccccc1C(F)(F)F)C1=NCCN12` [Compound I-22, 7-(2-methylbenzyl)-4-(2-(trifluoromethyl)benzyl)-1,2,6,7,8,9-hexahydroimidazo[1,2-a]pyrido[3,4-e]pyrimidin-5(4H)-one], the IC50 is 2.13 ± 0.008 µM in experiment [1] and 2.03 ± 0.009 µM in experiment [2].

With `Cc1cccc(CN2CCC3=C(C2)C(=O)N(Cc2ccccc2Cl)C2=NCCN23)c1` [Compound I-32, 4-(2-chlorobenzyl)-7-(3-methylbenzyl)-1,2,6,7,8,9-hexahydroimidazo[1,2-a]pyrido[3,4-e]pyrimidin-5(4H)-one], the IC50 in experiment [1] turned out to be 0.74 ± 0.001 µM; in experiment [2], 0.77 ± 0.048 µM.

Turning to `Cc1cccc(CN2CCC3=C(C2)C(=O)N(Cc2ccccc2C)C2=NCCN23)c1` [Compound I-34, 4-(2-methylbenzyl)-7-(3-methylbenzyl)-1,2,6,7,8,9-hexahydroimidazo[1,2-a]pyrido[3,4-e]pyrimidin-5(4H)-one], the IC50 in experiment [1] is 0.73 ± 0.002 µM; in experiment [2] it was 0.73 ± 0.001 µM.

Regarding `O=C1C2=C(CCN(Cc3cccc(Br)c3)C2)N2CCN=C2N1Cc1ccccc1C(F)(F)F` [Compound I-54, 7-(3-bromobenzyl)-4-(2-(trifluoromethyl)benzyl)-1,2,6,7,8,9-hexahydroimidazo[1,2-a]pyrido[3,4-e]pyrimidin-5(4H)-one], the IC50 stood at 24.8 ± 2.58 µM in experiment [1] and 21.41 ± 0.034 µM in experiment [2].

For the compound `O=C1C2=C(CCN(Cc3ccccc3Br)C2)N2CCN=C2N1Cc1ccccc1Br` [Compound I-19, 4,7-bis(2-bromobenzyl)-1,2,6,7,8,9-hexahydroimidazo[1,2-a]pyrido[3,4-e]pyrimidin-5(4H)-one], the IC50 in experiment [1] was 3.67 ± 0.036 µM; in experiment [2], 2.22 ± 0.007 µM.

As for `O=C1C2=C(CCN(Cc3ccccc3)C2)N2CCN=C2N1Cc1ccc(Cl)c(C(F)(F)F)c1` [Compound I-42, 7-benzyl-4-(4-chloro-3-(trifluoromethyl)benzyl)-1,2,6,7,8,9-hexahydroimidazo[1,2-a]pyrido[3,4-e]pyrimidin-5(4H)-one], the IC50 in experiment [1] came out at 1.07 ± 0.01 µM; in experiment [2], 0.73 µM.

In the case of `COc1ccc(CN2CCC3=C(C2)C(=O)N(Cc2ccccc2C)C2=NCCN23)cc1` [Compound I-7, 7-(4-methoxybenzyl)-4-(2-methylbenzyl)-1,2,6,7,8,9-hexahydroimidazo[1,2-a]pyrido[3,4-e]pyrimidin-5(4H)-one], the results for the IC50 in experiment [1] and in experiment [2] were 1.88 ± 0.078 µM and 2.09 ± 0.092 µM, respectively.

In the case of `O=C1C2=C(CCN(Cc3cccc(Cl)c3)C2)N2CCN=C2N1Cc1ccccc1Br` [Compound I-37, 4-(2-bromobenzyl)-7-(3-chlorobenzyl)-1,2,6,7,8,9-hexahydroimidazo[1,2-a]pyrido[3,4-e]pyrimidin-5(4H)-one], the IC50 is 2.33 ± 0.095 µM in experiment [1] and 2.31 ± 0.033 µM in experiment [2].

`O=C1C2=C(CCN(Cc3ccccc3)C2)N2CCN=C2N1Cc1ccccc1Br` [Compound I-5, 7-benzyl-4-(2-bromobenzyl)-1,2,6,7,8,9-hexahydroimidazo[1,2-a]pyrido[3,4-e]pyrimidin-5(4H)-one]: the IC50 in experiment [1] came to 6.81 ± 0.057 µM; in experiment [2] it was 5.96 ± 1.35 µM.
